The values that follow come from patent US9850283B2, “Macrocyclic inhibitors of the PD-1/PD-L1 and CD80(B7-1)/PD-L1 protein/protein interactions” (BRISTOL-MYERS SQUIBB COMPANY, priority 2013, dated 2017).

For one assay, the target named is T1, Human PD-L1/PD-1 (Homo sapiens, UniProt Q9NZQ7).
T1 construct: made in house; host or cells: HEK293T
Description: HTRF PD-1-Ig/PD-L1-His binding assay (human PD-L1). Conditions: cluster symbol; read-out: HTRF IC50 cluster. The essentials:
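Soluble Fc-fused PD-1 and His-tagged PD-L1 (truncated before the transmembrane region) were combined in dPBS with 0.1% (w/v) BSA and 0.05% (v/v) Tween-20. Binding was read by HTRF using europium cryptate anti-Ig antibody (1 nM final) and APC anti-His antibody (20 nM final).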

The target in assay [1] is T2, LK35.2-hPD-L1 cells / PE-labeled PD-1-Ig (Homo sapiens, UniProt Q9NZQ7).
T2 construct: expressed in transfected cells; host or cells: LK35.2 mouse B cell line
Put plainly: LK35.2-hPD-L1 cell binding high-content screening assay. It counts as cell-based. Conditions: cluster symbol; cell line of CBA not given (LK35.2-hPD-L1 or 293T-hPD-L1); read-out: CBA IC50 cluster. In outline:
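Using overnight-cultured LK35.2-hPD-L1 mouse B cells, compound was co-incubated with phycoerythrin-tagged human PD-1-Ig (final 1 nM) at 37 °C for one hour. Unbound label was removed by triple dPBS washing prior to high-content image acquisition and analysis.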

Positions of bridges follow the written chain, without caps; N, C: chain ends. Non-standard residues stand in square brackets, D forms with d. Residues, ends and D or L forms follow the SMILES beside them. Bta = N[C@@H](Cc1csc2ccccc12)C(=O)O; Hyp = O=C(O)[C@@H]1C[C@@H](O)CN1; NMeNle = CCCC[C@H](NC)C(=O)O; NMeA = CN[C@@H](C)C(=O)O; Orn = NCCC[C@H](N)C(=O)O; Dab = NCC[C@H](N)C(=O)O; Dap = NC[C@H](N)C(=O)O Bounds are passed on as bounds.

T1 sequence (Q9NZQ7 with tags, fused parts or gaps): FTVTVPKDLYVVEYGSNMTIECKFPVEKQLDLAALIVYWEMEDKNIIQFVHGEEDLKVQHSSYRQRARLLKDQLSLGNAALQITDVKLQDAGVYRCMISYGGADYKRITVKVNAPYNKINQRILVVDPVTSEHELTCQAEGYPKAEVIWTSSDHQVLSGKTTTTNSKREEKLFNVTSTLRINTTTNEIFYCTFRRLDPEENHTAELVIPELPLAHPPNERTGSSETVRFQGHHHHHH
T2 sequence (Q9NZQ7 19-290): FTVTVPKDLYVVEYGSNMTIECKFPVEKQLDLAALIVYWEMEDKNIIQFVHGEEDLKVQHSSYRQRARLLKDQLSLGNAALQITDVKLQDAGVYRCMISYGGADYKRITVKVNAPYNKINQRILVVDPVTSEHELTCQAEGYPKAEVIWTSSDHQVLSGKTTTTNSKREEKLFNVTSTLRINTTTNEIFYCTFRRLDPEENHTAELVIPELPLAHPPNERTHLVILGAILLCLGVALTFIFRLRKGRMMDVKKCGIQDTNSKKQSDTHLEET

Consider `CCCC[C@H]1C(=O)N(C)[C@@H](CCCC)C(=O)N[C@@H](CCCNC(=N)N)C(=O)N[C@H](C(=O)NCC(N)=O)CSCC(=O)N[C@@H](Cc2ccc(O)cc2)C(=O)N(C)[C@@H](C)C(=O)N[C@@H](CC(=O)O)C(=O)N2CCC[C@H]2C(=O)N[C@@H](Cc2cnc[nH]2)C(=O)N[C@@H](CC(C)C)C(=O)N2C[C@H](O)C[C@H]2C(=O)N[C@@H](Cc2c[nH]c3ccccc23)C(=O)N[C@@H](CO)C(=O)N[C@@H](Cc2c[nH]c3ccccc23)C(=O)N1C` [Example 1166] ({CH2CO}-Y[NMeA]DPHL[Hyp]WSW[NMeNle][NMeNle]RCG-NH2; thioether N-14), for which the IC50 on Human PD-L1/PD-1 is 0.385 to 6.74 nM; in assay [1] it was 0.158 to 4.71 nM.

As for `CCCC[C@H]1C(=O)N(C)[C@@H](CCCC)C(=O)N[C@@H](CCCNC(=N)N)C(=O)N[C@H](C(=O)NCC(N)=O)CSCC(=O)N[C@@H](Cc2ccc(O)cc2)C(=O)N(C)[C@@H](C)C(=O)N[C@@H](CCC(=O)O)C(=O)N2CCC[C@H]2C(=O)N[C@@H](Cc2cnc[nH]2)C(=O)N[C@@H](CC(C)C)C(=O)N2CCC[C@H]2C(=O)N[C@@H](Cc2c[nH]c3ccccc23)C(=O)N[C@@H](CO)C(=O)N[C@@H](Cc2c[nH]c3ccccc23)C(=O)N1C` [Example 1167] ({CH2CO}-Y[NMeA]EPHLPWSW[NMeNle][NMeNle]RCG-NH2; thioether N-14), the IC50 at Human PD-L1/PD-1 was in the range of 0.385 to 6.74 nM; in assay [1], 0.158 to 4.71 nM.

With `CCCC[C@H]1C(=O)N(C)[C@@H](CCCC)C(=O)N[C@@H](C)C(=O)N[C@H](C(=O)NCC(N)=O)CSCC(=O)N[C@@H](Cc2ccc(O)cc2)C(=O)N(C)[C@@H](C)C(=O)N[C@@H](CC(N)=O)C(=O)N2CCC[C@H]2C(=O)N[C@@H](Cc2cnc[nH]2)C(=O)N[C@@H](CCC(=O)O)C(=O)N2C[C@H](O)C[C@H]2C(=O)N[C@@H](Cc2c[nH]c3ccccc23)C(=O)N[C@@H](CO)C(=O)N[C@@H](Cc2c[nH]c3ccccc23)C(=O)N1C` [Example 1168], the figures for the IC50 (on Human PD-L1/PD-1; in assay [1]) were 0.385 to 6.74 nM and 0.158 to 4.71 nM, respectively.

As for `CCCC[C@H]1C(=O)N(C)[C@@H](CCCC)C(=O)N[C@@H](C)C(=O)N[C@H](C(=O)NCC(N)=O)CSCC(=O)N[C@@H](Cc2ccc(O)cc2)C(=O)N(C)[C@@H](C)C(=O)N[C@@H](CCC(=O)O)C(=O)N2CCC[C@H]2C(=O)N[C@@H](Cc2cnc[nH]2)C(=O)N[C@@H](CC(C)C)C(=O)N2C[C@H](O)C[C@H]2C(=O)N[C@@H](Cc2c[nH]c3ccccc23)C(=O)N[C@@H](CO)C(=O)N[C@@H](Cc2c[nH]c3ccccc23)C(=O)N1C` [Example 1169], the IC50 is 6.76 to 30.3 nM on Human PD-L1/PD-1 and 4.78 to 72.9 nM in assay [1].

On to `CCCC[C@H]1C(=O)N(C)[C@@H](CCCC)C(=O)N[C@@H](C)C(=O)N[C@H](C(=O)NCC(N)=O)CSCC(=O)N[C@@H](Cc2ccc(O)cc2)C(=O)N(C)[C@@H](C)C(=O)N[C@@H](CC(N)=O)C(=O)N2CCC[C@H]2C(=O)N[C@@H](CN)C(=O)N[C@@H](CC(=O)O)C(=O)N2C[C@H](O)C[C@H]2C(=O)N[C@@H](Cc2c[nH]c3ccccc23)C(=O)N[C@@H](CO)C(=O)N[C@@H](Cc2c[nH]c3ccccc23)C(=O)N1C` [Example 1170] ({CH2CO}-Y[NMeA]NP[Dap]D[Hyp]WSW[NMeNle][NMeNle]ACG-NH2; thioether N-14), for which the IC50 on Human PD-L1/PD-1 fell in the range of 0.385 to 6.74 nM; in assay [1], 4.78 to 72.9 nM.

As for `CCCC[C@H]1C(=O)N(C)[C@@H](CCCC)C(=O)N[C@@H](C)C(=O)N[C@H](C(=O)NCC(N)=O)CSCC(=O)N[C@@H](Cc2ccc(O)cc2)C(=O)N(C)[C@@H](C)C(=O)N[C@@H](CC(N)=O)C(=O)N2CCC[C@H]2C(=O)N[C@@H](CN)C(=O)N[C@@H](CCC(=O)O)C(=O)N2C[C@H](O)C[C@H]2C(=O)N[C@@H](Cc2c[nH]c3ccccc23)C(=O)N[C@@H](CO)C(=O)N[C@@H](Cc2c[nH]c3ccccc23)C(=O)N1C` [Example 1171] ({CH2CO}-Y[NMeA]NP[Dap]E[Hyp]WSW[NMeNle][NMeNle]ACG-NH2; thioether N-14), the IC50 fell in the range of 0.385 to 6.74 nM at Human PD-L1/PD-1 and 0.158 to 4.71 nM in assay [1].

With `CCCC[C@H]1C(=O)N(C)[C@@H](CCCC)C(=O)N[C@@H](C)C(=O)N[C@H](C(N)=O)CSCC(=O)N[C@@H](Cc2ccc(O)cc2)C(=O)N(C)[C@@H](C)C(=O)N[C@@H](CCC(=O)O)C(=O)N2CCC[C@H]2C(=O)N[C@@H](CN)C(=O)N[C@@H](CC(C)C)C(=O)N2C[C@H](O)C[C@H]2C(=O)N[C@@H](Cc2c[nH]c3ccccc23)C(=O)N[C@@H](CO)C(=O)N[C@@H](Cc2c[nH]c3ccccc23)C(=O)N1C` [Example 1172] ({CH2CO}-Y[NMeA]EP[Dap]L[Hyp]WSW[NMeNle][NMeNle]AC-NH2; thioether N-14), the IC50 at Human PD-L1/PD-1 lay in the range of 0.385 to 6.74 nM; in assay [1] it was 4.78 to 72.9 nM.

For the compound `CCCC[C@H]1C(=O)N(C)[C@@H](CCCC)C(=O)N[C@@H](CCCN)C(=O)N[C@H](C(=O)NCC(N)=O)CSCC(=O)N[C@@H](Cc2ccc(O)cc2)C(=O)N2CC(F)(F)C[C@H]2C(=O)N[C@@H](CC(N)=O)C(=O)N2CCC[C@H]2C(=O)N[C@@H](Cc2cnc[nH]2)C(=O)N[C@@H](CC(C)C)C(=O)N2C[C@H](O)C[C@H]2C(=O)N[C@@H](Cc2c[nH]c3ccccc23)C(=O)N[C@@H](CO)C(=O)N[C@@H](Cc2c[nH]c3ccccc23)C(=O)N1C` [Example 1174], the IC50 was in the range of 0.385 to 6.74 nM on Human PD-L1/PD-1 and 0.158 to 4.71 nM in assay [1].

`CCCC[C@H]1C(=O)N(C)[C@@H](CCCC)C(=O)N[C@@H](CCCNC(=N)N)C(=O)N[C@H](C(=O)NCC(N)=O)CSCC(=O)N[C@@H](Cc2ccc(O)cc2)C(=O)N(C)[C@@H](C)C(=O)N[C@@H](CCC(=O)O)C(=O)N2CCC[C@H]2C(=O)N[C@@H](Cc2cnc[nH]2)C(=O)N[C@@H](CC(C)C)C(=O)N2C[C@H](O)C[C@H]2C(=O)N[C@@H](Cc2c[nH]c3ccccc23)C(=O)N[C@@H](CO)C(=O)N[C@@H](Cc2c[nH]c3ccccc23)C(=O)N1C` [Example 1175] ({CH2CO}-Y[NMeA]EPHL[Hyp]WSW[NMeNle][NMeNle]RCG-NH2; thioether N-14): the IC50 was 0.385 to 6.74 nM at Human PD-L1/PD-1 and 4.78 to 72.9 nM in assay [1].

Turning to `CCCC[C@H]1C(=O)N(C)[C@@H](CCCC)C(=O)N[C@@H](CCCN)C(=O)N[C@H](C(=O)NCC(N)=O)CSCC(=O)N[C@@H](Cc2ccc(O)cc2)C(=O)N2CC[C@H]2C(=O)N[C@@H](CC(N)=O)C(=O)N2CCC[C@H]2C(=O)N[C@@H](Cc2cnc[nH]2)C(=O)N[C@@H](CC(C)C)C(=O)N2C[C@H](O)C[C@H]2C(=O)N[C@@H](Cc2c[nH]c3ccccc23)C(=O)N[C@@H](CO)C(=O)N[C@@H](Cc2c[nH]c3ccccc23)C(=O)N1C` [Example 1176], the IC50 was 6.76 to 30.3 nM on Human PD-L1/PD-1 and 4.78 to 72.9 nM in assay [1].

For `CCCC[C@H]1C(=O)N(C)[C@@H](CCCC)C(=O)N[C@@H](CCCN)C(=O)N[C@H](C(=O)NCC(N)=O)CSCC(=O)N[C@@H](Cc2ccc(O)cc2)C(=O)N2CCCC[C@H]2C(=O)N[C@@H](CC(N)=O)C(=O)N2CCC[C@H]2C(=O)N[C@@H](Cc2cnc[nH]2)C(=O)N[C@@H](CC(C)C)C(=O)N2C[C@H](O)C[C@H]2C(=O)N[C@@H](Cc2c[nH]c3ccccc23)C(=O)N[C@@H](CO)C(=O)N[C@@H](Cc2c[nH]c3ccccc23)C(=O)N1C` [Example 1177], the IC50 was 0.385 to 6.74 nM on Human PD-L1/PD-1 and 0.158 to 4.71 nM in assay [1].

For `CCCC[C@H]1C(=O)N(C)[C@@H](CCCC)C(=O)N[C@@H](C)C(=O)N[C@H](C(=O)NCC(N)=O)CSCC(=O)N[C@@H](Cc2ccc(O)cc2)C(=O)N(C)[C@@H](C)C(=O)N[C@@H](CCC(=O)O)C(=O)N2CCC[C@H]2C(=O)N[C@@H](Cc2cnc[nH]2)C(=O)N[C@@H](CCCN)C(=O)N2C[C@H](O)C[C@H]2C(=O)N[C@@H](Cc2c[nH]c3ccccc23)C(=O)N[C@@H](CO)C(=O)N[C@@H](Cc2c[nH]c3ccccc23)C(=O)N1C` [Example 1178] ({CH2CO}-Y[NMeA]EPH[Orn][Hyp]WSW[NMeNle][NMeNle]ACG-NH2; thioether N-14), the IC50 lay in the range of 0.385 to 6.74 nM at Human PD-L1/PD-1 and 4.78 to 72.9 nM in assay [1].

For the compound `CCCC[C@H]1C(=O)N(C)[C@@H](CCCC)C(=O)N[C@@H](C)C(=O)N[C@H](C(=O)NCC(N)=O)CSCC(=O)N[C@@H](Cc2ccc(O)cc2)C(=O)N(C)[C@@H](C)C(=O)N[C@@H](CCCN)C(=O)N2CCC[C@H]2C(=O)N[C@@H](Cc2cnc[nH]2)C(=O)N[C@@H](CCC(=O)O)C(=O)N2C[C@H](O)C[C@H]2C(=O)N[C@@H](Cc2c[nH]c3ccccc23)C(=O)N[C@@H](CO)C(=O)N[C@@H](Cc2c[nH]c3ccccc23)C(=O)N1C` [Example 1179] ({CH2CO}-Y[NMeA][Orn]PHE[Hyp]WSW[NMeNle][NMeNle]ACG-NH2; thioether N-14), the IC50 at Human PD-L1/PD-1 was in the range of 0.385 to 6.74 nM; in assay [1], 4.78 to 72.9 nM.

Turning to `CCCC[C@H]1C(=O)N(C)[C@@H](CCCC)C(=O)N[C@@H](CN)C(=O)N[C@H](C(=O)NCC(N)=O)CSCC(=O)N[C@@H](Cc2ccc(O)cc2)C(=O)N(C)[C@@H](C)C(=O)N[C@@H](CC(N)=O)C(=O)N2CCC[C@H]2C(=O)N[C@@H](CN)C(=O)N[C@@H](CC(C)C)C(=O)N2C[C@H](O)C[C@H]2C(=O)N[C@@H](Cc2c[nH]c3ccccc23)C(=O)N[C@@H](CCN)C(=O)N[C@@H](Cc2csc3ccccc23)C(=O)N1C` [Example 1180] ({CH2CO}-Y[NMeA]NP[Dap]L[Hyp]W[Dab][Bta][NMeNle][NMeNle][Dap]CG-NH2; thioether N-14), the IC50 on Human PD-L1/PD-1 was in the range of 0.385 to 6.74 nM; in assay [1] it was 0.158 to 4.71 nM.

As to `CCCC[C@H]1C(=O)N(C)[C@@H](CCCC)C(=O)N[C@@H](CCCN)C(=O)N[C@H](C(=O)NCC(N)=O)CSCC(=O)N[C@@H](Cc2ccc(O)cc2)C(=O)N2CCC[C@H]2C(=O)N[C@@H](CC(=O)O)C(=O)N2CCC[C@H]2C(=O)N[C@@H](CN)C(=O)N[C@@H](CC(=O)O)C(=O)N2C[C@H](O)C[C@H]2C(=O)N[C@@H](Cc2c[nH]c3ccccc23)C(=O)N[C@@H](CCN)C(=O)N[C@@H](Cc2csc3ccccc23)C(=O)N1C` [Example 1181] ({CH2CO}-YPDP[Dap]D[Hyp]W[Dab][Bta][NMeNle][NMeNle][Orn]CG-NH2; thioether N-14), the IC50 is 6.76 to 30.3 nM on Human PD-L1/PD-1 and more than 74.3 nM in assay [1].
